Source: PMC11971462, “Generation and validation of a novel multitarget small molecule in glioblastoma” (Cell Death & Disease, 2025)

Test system: GNS166 cells
Assay: Label-free proteomics differential expression
Format: cell-based, human
Procedure: Proteomic studies were performed by the Proteomics Facility of the CIC bioGUNE by label-free relative quantification on nLC MS/MS. […] In both approaches, the top 20 enriched terms were plotted and the pathways were clustered using divisive hierarchical clustering based on pairwise Jaccard distances.

In the case of `C#CCN(Cc1cc2cc(OCCCN3CCCCC3)ccc2n1S(=O)(=O)c1ccccc1)C(=O)CCCCCCC(=O)NO` [DDI], the “Direction ANR52_HUMAN” value (protein Q8NB46) is reported as “Down”, the “LogFC ANR52_HUMAN” value (protein Q8NB46) is reported as -3.184 and the “Direction TTC13_HUMAN” value (protein Q8NBP0) is reported as “Down”. For the same compound, the “LogFC TTC13_HUMAN” value (protein Q8NBP0) was -1.381, the “LogFC KMT2C_HUMAN” value (protein Q8NEZ4 GN=KMT2C) was 0.407 and the “LogFC PLBL2_HUMAN” value (protein Q8NHP8 GN=PLBD2) was 1.378. The “LogFC NEDD1_HUMAN” value (protein Q8NHV4 GN=NEDD1) was 0.5958, the “LogFC SMRC2_HUMAN” value (protein Q8TAQ2 GN=SMARCC2) was -0.7509 and the “LogFC CX038_HUMAN” value (protein Q8TB03 GN=CXorf38) was 1.347. The “LogFC GDAP1_HUMAN” value (protein Q8TB36 GN=GDAP1) was 1.874, the “Direction CIP2A_HUMAN” value (protein Q8TCG1) was “Down” and the “LogFC CIP2A_HUMAN” value (protein Q8TCG1) was -1.2095. The “LogFC DDX54_HUMAN” value (protein Q8TDD1 GN=DDX54) was -1.067, the “Direction DTD1_HUMAN” value (protein Q8TEA8) was “Down” and the “LogFC DTD1_HUMAN” value (protein Q8TEA8) was -0.5287. The “LogFC PPIL4_HUMAN” value (protein Q8WUA2 GN=PPIL4) was -1.325, the “Direction LMBR1_HUMAN” value (protein Q8WVP7) was “Down” and the “LogFC LMBR1_HUMAN” value (protein Q8WVP7) was -0.9571. The “LogFC FACR1_HUMAN” value (protein Q8WVX9 GN=FAR1) was 0.64, the “LogFC UBCP1_HUMAN” value (protein Q8WVY7 GN=UBLCP1) was 1.245 and the “Direction ATX2L_HUMAN” value (protein Q8WWM7) was “Down”. The “LogFC ATX2L_HUMAN” value (protein Q8WWM7) was -0.7543, the “Direction PHIP_HUMAN” value (protein Q8WWQ0) was “Down” and the “LogFC PHIP_HUMAN” value (protein Q8WWQ0) was -2.692. For the same compound, the “Direction NELFB_HUMAN” value (protein Q8WX92) was “Down”, the “LogFC NELFB_HUMAN” value (protein Q8WX92) was -0.7153 and the “Direction ATLA1_HUMAN” value (protein Q8WXF7) was “Down”. For the same compound, the “LogFC ATLA1_HUMAN” value (protein Q8WXF7) was -1.239, the “Direction CND3_HUMAN” value (protein Q9BPX3) was “Down” and the “LogFC CND3_HUMAN” value (protein Q9BPX3) was -1.5744. The “Direction FSP1_HUMAN” value (protein Q9BRQ8) was “Down”, the “LogFC FSP1_HUMAN” value (protein Q9BRQ8) was -0.8531 and the “Direction GCP2_HUMAN” value (protein Q9BSJ2) was “Down”. For the same compound, the “LogFC GCP2_HUMAN” value (protein Q9BSJ2) was -1.427, the “LogFC P4K2A_HUMAN” value (protein Q9BTU6 GN=PI4K2A) was 1.541 and the “LogFC TMM43_HUMAN” value (protein Q9BTV4 GN=TMEM43) was -0.7287. The “LogFC MKNK1_HUMAN” value (protein Q9BUB5 GN=MKNK1) was 1.242, the “LogFC TBB2B_HUMAN” value (protein Q9BVA1 GN=TUBB2B) was 1.2351 and the “Direction PBDC1_HUMAN” value (protein Q9BVG4) was “Down”. For the same compound, the “LogFC PBDC1_HUMAN” value (protein Q9BVG4) was -0.9108, the “Direction KIFC1_HUMAN” value (protein Q9BW19) was “Down” and the “LogFC KIFC1_HUMAN” value (protein Q9BW19) was -4.377. For the same compound, the “Direction NADAP_HUMAN” value (protein Q9BWU0) was “Down”, the “LogFC NADAP_HUMAN” value (protein Q9BWU0) was -0.9102 and the “Direction LS14B_HUMAN” value (protein Q9BX40) was “Down”. The “LogFC LS14B_HUMAN” value (protein Q9BX40) was -1.3017, the “Direction NUSAP_HUMAN” value (protein Q9BXS6) was “Down” and the “LogFC NUSAP_HUMAN” value (protein Q9BXS6) was -2.873. For the same compound, the “Direction EIF2A_HUMAN” value (protein Q9BY44) was “Down”, the “LogFC EIF2A_HUMAN” value (protein Q9BY44) was -0.2917 and the “LogFC PDIP3_HUMAN” value (protein Q9BY77 GN=POLDIP3) was -0.8716. The “LogFC GNB1L_HUMAN” value (protein Q9BYB4 GN=GNB1L) was 2.567, the “LogFC PAR6B_HUMAN” value (protein Q9BYG5 GN=PARD6B) was 1.231 and the “LogFC ARL6_HUMAN” value (protein Q9H0F7 GN=ARL6) was 2.762. The “Direction RGAP1_HUMAN” value (protein Q9H0H5) was “Down”, the “LogFC RGAP1_HUMAN” value (protein Q9H0H5) was -3.033 and the “Direction SMG9_HUMAN” value (protein Q9H0W8) was “Down”. For the same compound, the “LogFC SMG9_HUMAN” value (protein Q9H0W8) was -1.751, the “Direction YTDC2_HUMAN” value (protein Q9H6S0) was “Down” and the “LogFC YTDC2_HUMAN” value (protein Q9H6S0) was -1.289. For the same compound, the “LogFC ANKZ1_HUMAN” value (protein Q9H8Y5 GN=ANKZF1) was 2.2814, the “LogFC EHMT1_HUMAN” value (protein Q9H9B1 GN=EHMT1) was -1.629 and the “Direction EHD4_HUMAN” value (protein Q9H223) was “Down”. For the same compound, the “LogFC EHD4_HUMAN” value (protein Q9H223) was -0.4023, the “LogFC FN3K_HUMAN” value (protein Q9H479 GN=FN3K) was -1.71 and the “Direction HEAT1_HUMAN” value (protein Q9H583) was “Down”. For the same compound, the “LogFC HEAT1_HUMAN” value (protein Q9H583) was -0.4862, the “Direction PHAX_HUMAN” value (protein Q9H814) was “Down” and the “LogFC PHAX_HUMAN” value (protein Q9H814) was -0.7063. The “LogFC NT5D2_HUMAN” value (protein Q9H857 GN=NT5DC2) was 0.9697, the “Direction ZWILC_HUMAN” value (protein Q9H900) was “Down” and the “LogFC ZWILC_HUMAN” value (protein Q9H900) was -1.417. For the same compound, the “LogFC QTRT2_HUMAN” value (protein Q9H974 GN=QTRT2) was -0.9473, the “LogFC WDR54_HUMAN” value (protein Q9H977 GN=WDR54) was 2.021 and the “LogFC ARMT1_HUMAN” value (protein Q9H993 GN=ARMT1) was 1.113. For the same compound, the “LogFC KT3K_HUMAN” value (protein Q9HA64 GN=FN3KRP) was 0.7505, the “Direction TM165_HUMAN” value (protein Q9HC07) was “Down” and the “LogFC TM165_HUMAN” value (protein Q9HC07) was -0.8409. For the same compound, the “Direction CWC22_HUMAN” value (protein Q9HCG8) was “Down”, the “LogFC CWC22_HUMAN” value (protein Q9HCG8) was -0.5601 and the “LogFC VAT1L_HUMAN” value (protein Q9HCJ6 GN=VAT1L) was 1.2681. The “Direction RM47_HUMAN” value (protein Q9HD33) was “Down”, the “LogFC RM47_HUMAN” value (protein Q9HD33) was -0.8741 and the “Direction TM9S3_HUMAN” value (protein Q9HD45) was “Down”. For the same compound, the “LogFC TM9S3_HUMAN” value (protein Q9HD45) was -0.5879, the “Direction HM20A_HUMAN” value (protein Q9NP66) was “Down” and the “LogFC HM20A_HUMAN” value (protein Q9NP66) was -1.261. The “LogFC TNR12_HUMAN” value (protein Q9NP84 GN=TNFRSF12A) was -2.0106, the “Direction LUC7L_HUMAN” value (protein Q9NQ29) was “Down” and the “LogFC LUC7L_HUMAN” value (protein Q9NQ29) was -0.6796. The “Direction SSF1_HUMAN” value (protein Q9NQ55) was “Down”, the “LogFC SSF1_HUMAN” value (protein Q9NQ55) was -1.815 and the “LogFC CL004_HUMAN” value (protein Q9NQ89 GN=C12orf4) was 1.057. For the same compound, the “LogFC ITM2C_HUMAN” value (protein Q9NQX7 GN=ITM2C) was 1.931, the “LogFC DBLOH_HUMAN” value (protein Q9NR28 GN=DIABLO) was 1.0021 and the “LogFC DDX21_HUMAN” value (protein Q9NR30 GN=DDX21) was -1.5607. The “LogFC HEBP1_HUMAN” value (protein Q9NRV9 GN=HEBP1) was 1.384, the “Direction ABC3C_HUMAN” value (protein Q9NRW3) was “Down” and the “LogFC ABC3C_HUMAN” value (protein Q9NRW3) was -0.8611. The “Direction LANC2_HUMAN” value (protein Q9NS86) was “Down”, the “LogFC LANC2_HUMAN” value (protein Q9NS86) was -1.981 and the “LogFC HOME3_HUMAN” value (protein Q9NSC5 GN=HOMER3) was 1.625. The “Direction F207A_HUMAN” value (protein Q9NSI2) was “Down”, the “LogFC F207A_HUMAN” value (protein Q9NSI2) was -1.761 and the “LogFC DIAP3_HUMAN” value (protein Q9NSV4 GN=DIAPH3) was -2.473. For the same compound, the “Direction SMC4_HUMAN” value (protein Q9NTJ3) was “Down”, the “LogFC SMC4_HUMAN” value (protein Q9NTJ3) was -1.4105 and the “Direction TYDP1_HUMAN” value (protein Q9NUW8) was “Down”. The “LogFC TYDP1_HUMAN” value (protein Q9NUW8) was -1.1128, the “Direction FANCI_HUMAN” value (protein Q9NVI1) was “Down” and the “LogFC FANCI_HUMAN” value (protein Q9NVI1) was -3.564. For the same compound, the “Direction EVA1B_HUMAN” value (protein Q9NVM1) was “Down”, the “LogFC EVA1B_HUMAN” value (protein Q9NVM1) was -3.511 and the “Direction THG1_HUMAN” value (protein Q9NWX6) was “Down”.
